Measurements as given in patent US20260109721A1, “IONIZABLE CATIONIC LIPIDS INCORPORATING SILICON: SYNTHESIS AND LNP FORMULATION” (priority 2023, published 2026).
Like-named read-outs stand apart in the source and are kept apart here.

How the values were obtained:
HeLa cells = test: Transfection efficiency with Luciferase (SecNLuc) mRNA, Nano-Glo assay (Method A); type: cell-based; settings: Luc mRNA, 24 h, luminescence; for Transfection 10 ng mRNA: 10 ng mRNA/well; for Transfection 50 ng mRNA: 50 ng mRNA/well; for Transfection 100 ng mRNA: 100 ng mRNA/well
In short: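 Luminescence from secreted NanoLuc, read with Nano-Glo reagent, gave transfection efficiency 24 h after HeLa cells were dosed. Method A lipid nanoparticles delivered SecNLuc mRNA at 10, 50 or 100 ng per well in triplicate.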

HepG2 cell line = test: In vitro toxicity study on HepG2 cell line (resazurin, viability and IC50); type: cell-based, human; settings: for Viability (%) at different lipid concentrations, mean: HepG2 cells, 48 h post-treatment, relative to ethanol vehicle controls; for IC50: read-out: IC50 value, μM (on HepG2 cell)
In short: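 Resazurin read-out (ex 530/em 580 nm, 5 h at 37 °C) measured lipid toxicity 48 h after dosing HepG2 cells (1000/well) at 6.25–800 μM. Viability was normalised to ethanol vehicle, and IC50 was derived from concentration-response curves.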

CCCCCCCC/C=C\CCCCCCCCOC(=O)C(C)(C)CC(OCCCCCCCC/C=C\CCCCCCCC)O[Si](C)(C)OCCCCCCN(CCO)CCN(CCO)CCCCCCO[Si](C)(C)OC(CC(C)(C)C(=O)OCCCCCCCC/C=C\CCCCCCCC)OCCCCCCCC/C=C\CCCCCCCC (stereo not drawn) [Example 96, di((Z)-octadec-9-en-1-yl) 14,17-bis(2-hydroxyethyl)-2,2,6,6,25,25,29,29-octamethyl-4,27-bis(((Z)-octadec-9-en-1-yl)oxy)-5,7,24,26-tetraoxa-14,17-diaza-6,25-disilatriacontanedioate]
Transfection 10 ng mRNA (HeLa cells): 3.94E+02
Transfection 50 ng mRNA (HeLa cells): 2.15E+03
Transfection 100 ng mRNA (HeLa cells): 2.94E+03
Viability (%) at different lipid concentrations, mean (HepG2 cell line; 6.25 μM lipid, resazurin): 98.62%
Viability (%) at different lipid concentrations, mean (HepG2 cell line; 12.5 μM lipid, resazurin): 98.94%
Viability (%) at different lipid concentrations, mean (HepG2 cell line; 25 μM lipid, resazurin): 97.36%
Viability (%) at different lipid concentrations, mean (HepG2 cell line; 50 μM lipid, resazurin): 96.50%
Viability (%) at different lipid concentrations, mean (HepG2 cell line; 100 μM lipid, resazurin): 95.63%
Viability (%) at different lipid concentrations, mean (HepG2 cell line; 200 μM lipid, resazurin): 90.16%
Viability (%) at different lipid concentrations, mean (HepG2 cell line; 400 μM lipid, resazurin): 67.88%
Viability (%) at different lipid concentrations, mean (HepG2 cell line; 800 μM lipid, resazurin): 5.80%
IC50 (HepG2 cell line; Homo sapiens, lipid toxicity, HepG2, 48 h post-treatment, resazurin, 6.25-800 μM): 465 µM

C#CCN(C)CCCCCCO[Si](C)(C)OC(CC(C)(C)C(=O)OCCCCCCCC/C=C\CCCCCCCC)OCCCCCCCC/C=C\CCCCCCCC (stereo not drawn) [Example 97, (Z)-octadec-9-en-1-yl 4,12,12,16,16-pentamethyl-14-(((Z)-octadec-9-en-1-yl)oxy)-11,13-dioxa-4-aza-12-silaheptadec-1-yn-17-oate]
Transfection 10 ng mRNA (HeLa cells): 3.01E+02
Transfection 50 ng mRNA (HeLa cells): 1.34E+03
Transfection 100 ng mRNA (HeLa cells): 1.28E+03
Viability (%) at different lipid concentrations, mean (HepG2 cell line; 6.25 μM lipid, resazurin): 100.7%
Viability (%) at different lipid concentrations, mean (HepG2 cell line; 12.5 μM lipid, resazurin): 96.1%
Viability (%) at different lipid concentrations, mean (HepG2 cell line; 25 μM lipid, resazurin): 95.5%
Viability (%) at different lipid concentrations, mean (HepG2 cell line; 50 μM lipid, resazurin): 97.5%
Viability (%) at different lipid concentrations, mean (HepG2 cell line; 100 μM lipid, resazurin): 98.9%
Viability (%) at different lipid concentrations, mean (HepG2 cell line; 200 μM lipid, resazurin): 99.7%
Viability (%) at different lipid concentrations, mean (HepG2 cell line; 400 μM lipid, resazurin): 91.8%
Viability (%) at different lipid concentrations, mean (HepG2 cell line; 800 μM lipid, resazurin): 0.7%
IC50 (HepG2 cell line; Homo sapiens, HepG2, 48 h): 501 µM

CCCCCCCCCCCOC(=O)CCCCCN(CCO)CCCCCCCC(=O)OC(CCCCCCCC)CCCCCCCC [SM-102, reference compound]
Transfection 10 ng mRNA (HeLa cells): 2.15E+06
Transfection 50 ng mRNA (HeLa cells): 7.53E+06
Transfection 100 ng mRNA (HeLa cells): 7.61E+06
Viability (%) at different lipid concentrations, mean (HepG2 cell line; 6.25 μM lipid, resazurin): 86.5%
Viability (%) at different lipid concentrations, mean (HepG2 cell line; 12.5 μM lipid, resazurin): 101.5%
Viability (%) at different lipid concentrations, mean (HepG2 cell line; 25 μM lipid, resazurin): 101.7%
Viability (%) at different lipid concentrations, mean (HepG2 cell line; 50 μM lipid, resazurin): 101.4%
Viability (%) at different lipid concentrations, mean (HepG2 cell line; 100 μM lipid, resazurin): 21.2%
Viability (%) at different lipid concentrations, mean (HepG2 cell line; 200 μM lipid, resazurin): 0.4%
Viability (%) at different lipid concentrations, mean (HepG2 cell line; 400 μM lipid, resazurin): 0.2%
Viability (%) at different lipid concentrations, mean (HepG2 cell line; 800 μM lipid, resazurin): 0.0%
IC50 (HepG2 cell line; lipid toxicity, HepG2, 48 h post-treatment, resazurin, 6.25-800 μM): 85 µM
